{"source": "patent US11878008B2", "about": "“Composition for preventing or treating atopic dermatitis” (AMOREPACIFIC CORPORATION, priority 2017, dated 2024)", "key": {"[1]": {"conditions": "cited from earlier work"}, "[2]": {"conditions": "rats; cited from earlier work"}, "[3]": {"conditions": "C57BL/6, mouse, in vivo, 2 h", "description": "As described above, AMG 517, a representative reference drug as a TRPV1 antagonist, and the compound of Formula 1 of the present invention were tested for the increase in body temperature during transdermal administration."}, "[4]": {"conditions": "rats, oral dose of 3 mg/kg; cited from earlier work"}, "[5]": {"assay": "Change in body temperature after oral administration in mice", "format": "in vivo, Balb/c mice", "conditions": "for change in body temperature, dose dependence: up to 4 hours, AMG 517 0.03, 0.1, 0.3 mg/kg, compound of Formula 1 3, 10, 30 mg/kg, FIGS. 2A, 2B", "from_the_text": "Meanwhile, when the same drug was orally administered, a concentration-dependent increase in body temperature due to TRPV1 antagonism was observed as expected (see FIGS. 2A and 2B)."}, "[6]": {"assay": "Change in body temperature in healthy volunteers after percutaneous administration", "format": "in vivo, human", "conditions": "percutaneous application to back skin, 7 to 30 days", "from_the_text": "The composition of Example 1 including the compound of Formula 1 was percutaneously applied to healthy volunteers other than the patients with atopic dermatitis to check a change in body temperature.\nThe 24 healthy adult volunteers were divided into three groups, and the volunteers in each of the groups were then randomly allocated into a test group of 6 volunteers (Example 1) and a placebo group of 2 volunteers (Comparative Example 1). The same clinician applied the composition onto the volunteers' back skins at a dose of 5, 15, 50 mg per 5 g every morning according to a predetermined administration method. In this case, the composition was applied for 7, 15, 30 days with a size of 25×40 cm and an area of 1,000 cm^2.\nA range of the body temperatures measured for the 24 volunteers in a clinical trial period was in a range of 35.4 to 37.3° C. The results of the changes in body temperatures from the baseline before the drug administration in each of the groups are as listed in the following Table 13."}, "[7]": {"assay": "Change in body temperature in healthy volunteers after oral administration", "format": "in vivo, human", "conditions": "oral 5 mg or 10 mg once a day for 8 days; healthy adult volunteers; FIGS. 6A, 6B", "description": "Ten healthy adult volunteers were divided into two groups, and the compound of Formula 1 was orally administered to the volunteers in each of the groups at a dose of 5 mg or 10 mg once a day for 8 days. Thereafter, a placebo was administered to the two volunteers in each of the groups, and the body temperatures were measured for 14 days. Then, the mean body temperature of the volunteers and a change in body temperature were determined."}}, "note": "Entries after “also recorded” stand apart in the source; their conditions may differ.", "data": [{"smiles": "CC(=O)Nc1nc2c(Oc3cc(-c4ccc(C(F)(F)F)cc4)ncn3)cccc2s1", "note": "[AMG 517]", "values": [{"measurement": "concentration dependence of hyperthermia", "setting": "[1]; oral administration for treatment of dental pain/toothache", "value": "concentration-dependent side effect of hyperthermia; also recorded: increased body temperature, which was proportional to a serum AMG 517 concentration"}, {"measurement": "body temperature increased to", "setting": "[1]; oral, group administered a dose of 25 mg", "value": 39.9, "unit": "°C"}, {"measurement": "effective concentration to maximize analgesic efficacy", "setting": "[2]", "value": "less than 0.3 mg/kg"}, {"measurement": "increase in body temperature", "setting": "[3]", "value": "~1.59", "unit": "°C"}, {"measurement": "body temperature increase", "setting": "[4]", "value": "about 1.3 °C"}, {"measurement": "change in body temperature at lowest dose", "setting": "[5]; 0.03 mg/kg", "value": "significantly increased body temperature"}, {"measurement": "change in body temperature, dose dependence", "setting": "[5]", "value": "increased body temperature in a dose-dependent manner"}]}, {"smiles": "CCCc1nc(C(F)(F)F)ccc1/C=C/C(=O)N[C@H](C)c1cc(F)c(NS(C)(=O)=O)c(F)c1", "note": "[compound of Formula 1, (R)-N-[1-(3,5-difluoro-4-methanesulfonylamino-phenyl)-ethyl]-3-(2-propyl-6-trifluoromethyl-pyridin-3-yl)-acrylamide]", "values": [{"measurement": "clinically significant findings associated with changes in body temperature", "setting": "[6]", "value": "such an increase in body temperature was not observed"}, {"measurement": "increase in body temperature", "setting": "[3]", "value": "~0.84", "unit": "°C"}, {"measurement": "change in body temperature, dose dependence", "setting": "[5]", "value": "increased body temperature in a dose-dependent manner"}, {"measurement": "body temperature change, dose dependence", "setting": "[7]", "value": "increased the body temperature in a dose-dependent manner; also recorded: increased body temperature (hyperthermia) were caused in a concentration-dependent manner"}]}]}
